Measurements taken from patent US20240208968A1, “ALPHA V BETA 6 AND ALPHA V BETA 1 INTEGRIN INHIBITORS AND USES THEREOF” (DiCE Molecules SV, Inc., priority 2021, published 2024).
Structures can show the parent of a compound that is named as a salt.

Experiments:
[1] = target: αvβ6 (Homo sapiens, UniProt P06756+P18564); assay: Solid Phase Integrin αvβ6 Assay; format: binding
Summary of the method: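 Inhibition of αvβ6 binding to immobilized recombinant TGFb1-LAP (1 μg/mL coating), 1 h at room temperature with 1 mM MnCl2 in BSA/TBST buffer, integrin diluted to 0.2 μg/mL before addition. Streptavidin-HRP/TMB read-out; four-parameter logistic fitting gave IC50.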

[2] = target: αvβ1 (Homo sapiens, UniProt P05556+P06756); assay: Solid Phase Integrin αvβ1 Assay; format: binding
Chain of αvβ1 (P06756 31-992 limits assumed): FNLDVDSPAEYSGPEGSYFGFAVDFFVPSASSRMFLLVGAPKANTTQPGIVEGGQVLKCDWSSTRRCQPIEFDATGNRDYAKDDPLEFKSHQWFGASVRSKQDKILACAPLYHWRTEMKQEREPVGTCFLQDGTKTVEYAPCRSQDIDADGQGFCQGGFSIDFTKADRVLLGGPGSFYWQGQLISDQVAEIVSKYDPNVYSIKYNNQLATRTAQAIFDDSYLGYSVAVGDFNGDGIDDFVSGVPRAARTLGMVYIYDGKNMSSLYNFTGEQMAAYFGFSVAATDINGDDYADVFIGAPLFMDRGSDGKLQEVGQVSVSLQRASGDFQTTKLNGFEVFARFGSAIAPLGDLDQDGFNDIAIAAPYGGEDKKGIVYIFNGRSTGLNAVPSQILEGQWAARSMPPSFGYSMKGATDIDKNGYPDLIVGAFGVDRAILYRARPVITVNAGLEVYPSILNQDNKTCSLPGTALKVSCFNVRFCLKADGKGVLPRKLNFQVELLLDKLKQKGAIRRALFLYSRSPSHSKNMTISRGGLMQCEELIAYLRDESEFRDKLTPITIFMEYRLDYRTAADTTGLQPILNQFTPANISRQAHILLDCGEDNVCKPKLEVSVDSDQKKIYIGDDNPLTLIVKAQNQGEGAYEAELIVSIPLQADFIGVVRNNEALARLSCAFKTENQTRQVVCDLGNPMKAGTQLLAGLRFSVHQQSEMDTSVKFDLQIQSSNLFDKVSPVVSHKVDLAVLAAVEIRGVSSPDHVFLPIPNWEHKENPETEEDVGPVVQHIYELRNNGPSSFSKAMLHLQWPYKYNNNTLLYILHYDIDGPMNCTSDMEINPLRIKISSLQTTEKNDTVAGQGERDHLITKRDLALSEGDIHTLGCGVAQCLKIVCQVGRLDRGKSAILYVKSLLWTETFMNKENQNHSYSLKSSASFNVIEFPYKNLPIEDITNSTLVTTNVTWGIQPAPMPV
Chain of αvβ1 (P05556 21-728 limits assumed): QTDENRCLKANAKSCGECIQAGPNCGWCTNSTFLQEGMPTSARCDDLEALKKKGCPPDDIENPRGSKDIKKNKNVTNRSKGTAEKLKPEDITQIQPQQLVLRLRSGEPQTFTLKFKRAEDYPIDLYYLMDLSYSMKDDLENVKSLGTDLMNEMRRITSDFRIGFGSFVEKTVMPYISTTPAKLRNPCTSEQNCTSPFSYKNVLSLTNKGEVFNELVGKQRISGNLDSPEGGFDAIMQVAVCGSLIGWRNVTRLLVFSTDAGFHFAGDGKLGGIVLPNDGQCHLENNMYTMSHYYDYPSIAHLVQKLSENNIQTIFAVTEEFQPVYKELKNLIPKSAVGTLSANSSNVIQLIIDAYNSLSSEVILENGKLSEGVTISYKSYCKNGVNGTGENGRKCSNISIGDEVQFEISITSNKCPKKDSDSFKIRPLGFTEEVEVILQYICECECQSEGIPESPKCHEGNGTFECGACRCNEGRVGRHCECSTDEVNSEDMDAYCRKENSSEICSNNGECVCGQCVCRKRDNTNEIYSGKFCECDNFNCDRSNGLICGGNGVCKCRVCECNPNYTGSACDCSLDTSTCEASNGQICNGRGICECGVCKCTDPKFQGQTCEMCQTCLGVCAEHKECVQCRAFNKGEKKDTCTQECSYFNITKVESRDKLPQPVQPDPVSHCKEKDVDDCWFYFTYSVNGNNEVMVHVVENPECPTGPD
Summary of the method: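 Compound competes for αvβ1 binding to immobilized TGFb1-LAP (1 µg/mL coat) in Mn2+ (1 mM MnCl2), 2% BSA binding buffer over 90 min at room temperature, integrin added at 0.2 µg/mL. Read-out: streptavidin-HRP/TMB; IC50 from Levenberg-Marquardt four-parameter fit.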

Chain of αvβ6 (P06756 31-992 limits assumed): as the sequence (P06756 31-992 limits assumed) above
Chain of αvβ6 (P18564 22-707 limits assumed): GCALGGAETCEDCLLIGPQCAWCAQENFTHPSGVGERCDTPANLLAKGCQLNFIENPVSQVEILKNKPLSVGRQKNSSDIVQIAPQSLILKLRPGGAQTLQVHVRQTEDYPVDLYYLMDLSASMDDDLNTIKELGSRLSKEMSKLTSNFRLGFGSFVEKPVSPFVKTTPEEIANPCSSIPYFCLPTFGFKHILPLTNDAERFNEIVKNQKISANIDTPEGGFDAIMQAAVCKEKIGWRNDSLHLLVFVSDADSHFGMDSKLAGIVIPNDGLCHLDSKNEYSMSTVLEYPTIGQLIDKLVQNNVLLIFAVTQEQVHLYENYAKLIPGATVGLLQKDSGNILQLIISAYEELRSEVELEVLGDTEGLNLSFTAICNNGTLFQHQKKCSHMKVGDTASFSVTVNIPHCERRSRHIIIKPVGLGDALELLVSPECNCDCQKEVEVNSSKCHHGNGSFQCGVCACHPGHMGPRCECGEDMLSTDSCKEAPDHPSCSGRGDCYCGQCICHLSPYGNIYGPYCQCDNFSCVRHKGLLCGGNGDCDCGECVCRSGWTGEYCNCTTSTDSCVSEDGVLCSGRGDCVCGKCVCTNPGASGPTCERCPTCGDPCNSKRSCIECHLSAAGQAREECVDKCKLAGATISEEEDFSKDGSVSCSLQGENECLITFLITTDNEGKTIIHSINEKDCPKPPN

| Structure (SMILES) | IC50 [1] [nM] | IC50 [2] [nM] |
| --- | --- | --- |
| O=C(NC[C@H](Nc1ncncc1C(F)(F)F)C(=O)O)[C@@H]1CCCN(CCCc2ccc3c(n2)NCCC3)C1 [Compound 563] | < 100 | < 100 |
| O=C(NC[C@@H](C(=O)O)c1cccc(C(F)(F)F)c1)[C@@H]1CCCN(CCCc2ccc3c(n2)NCCC3)C1 [Compound 252-A, 3-((R)-1-(3-(5,6,7,8-tetrahydro-1,8-naphthyridin-2-yl)propyl)piperidine-3-carboxamido)-2-(3-(trifluoromethyl)phenyl)propanoic acid] | 100 to 1000 | < 100 |
| O=C(NC[C@H](C(=O)O)c1cccc(N2C[C@@H]3CC[C@H]2CO3)c1)[C@@H]1CCCN(CCCc2ccc3c(n2)NCCC3)C1 [Compound 566] | < 100 | < 100 |
| O=C(NC[C@@H](C(=O)O)c1cnc2[nH]ccc2c1)[C@@H]1CCCN(CCCc2ccc3c(n2)NCCC3)C1 [Compound 324] | > 1000 | < 100 |
| O=C(O)[C@H](CCO[C@@H]1CCCN(CCCc2ccc3c(n2)NCCC3)C1)c1cccc2nn(CC3CC3)cc12 [Compound 501] | 100 to 1000 | > 1000 |
| CN1CCc2ccc(S(=O)(=O)N3CCC[C@@H](C(=O)N[C@@H](CNC(=O)[C@@H]4CCCN(CCCc5ccc6c(n5)NCCC6)C4)C(=O)O)C3)cc21 [Compound 267, (S)-2-((R)-1-((1-methylindolin-6-yl)sulfonyl)piperidine-3-carboxamido)-3-((R)-1-(3-(5,6,7,8-tetrahydro-1,8-naphthyridin-2-yl)propyl)piperidine-3-carboxamido)propanoic acid] | < 100 | < 100 |
| O=C(NC[C@H](NC(=O)[C@@H]1CC2CCC1CC2)C(=O)O)[C@@H]1CCCN(CCCc2ccc3c(n2)NCCC3)C1 [Compound 304] | < 100 | < 100 |
| O=C(O)C[C@H](NC(=O)[C@@H]1CCCN(CCCc2ccc3c(n2)NCCC3)C1)c1cccc(N2CCCC2=O)c1 [Compound 239, (S)-3-(3-(2-oxopyrrolidin-1-yl)phenyl)-3-((R)-1-(3-(5,6,7,8-tetrahydro-1,8-naphthyridin-2-yl)propyl)piperidine-3-carboxamido)propanoic acid] | < 100 | < 100 |
| O=C(CC[C@@H](NC(=O)[C@H]1CCCN1S(=O)(=O)c1ccccc1)C(=O)O)N[C@H]1CCN(C(=O)CCCc2ccc3c(n2)NCCC3)C1 [Compound 440] | > 1000 | 100 to 1000 |
| O=C(O)CC(NC(=O)[C@@H]1CCCN(CCCc2ccc3c(n2)NCCC3)C1)c1ccc2c(c1)OCC2 (stereo partly drawn) [Compound 217, 3-(2,3-dihydrobenzofuran-6-yl)-3-((R)-1-(3-(5,6,7,8-tetrahydro-1,8-naphthyridin-2-yl)propyl)piperidine-3-carboxamido)propanoic acid hydrochloride] | < 100 | < 100 |
| O=C(CC[C@@H](NC(=O)[C@H]1CCCN1S(=O)(=O)c1ccccc1)C(=O)O)N[C@H]1CCN(CCCCc2ccc3c(n2)NCCC3)C1 [Compound 436] | > 1000 | 100 to 1000 |
| Cc1c[s+]([O-])c2ncnc(N[C@H](CCO[C@@H]3CCCN(CCCc4ccc5c(n4)NCCC5)C3)C(=O)O)c12 (stereo partly drawn) [Compound 510] | > 1000 | > 1000 |
| O=C(O)[C@H](CCO[C@@H]1CCCN(CCCc2ccc3c(n2)NCCC3)C1)Nc1ncnc2cc(C(F)(F)F)ccc12 [Compound 475] | > 1000 | > 1000 |
| O=C(O)C[C@H](NC(=O)[C@@H]1CCCN(CCCc2ccc3c(n2)NCCC3)C1)c1ccc2c(c1)C1(CC2)CC1 [Compound 541] | < 100 | < 100 |
| O=C(NC[C@H](C(=O)O)c1cccc2cn([C@H]3CCC(F)(F)C3)nc12)[C@@H]1CCCN(CCCc2ccc3c(n2)NCCC3)C1 [Compound 619] | < 100 | < 100 |
| O=C(NC[C@H](NC(=O)[C@@H]1CCCC[C@H]1C(=O)N1CCCC1)C(=O)O)[C@@H]1CCCN(CCCc2ccc3c(n2)NCCC3)C1 [Compound 264, (S)-2-((1R,2R)-2-(pyrrolidine-1-carbonyl)cyclohexane-1-carboxamido)-3-((R)-1-(3-(5,6,7,8-tetrahydro-1,8-naphthyridin-2-yl)propyl)piperidine-3-carboxamido)propanoic acid] | < 100 | < 100 |
| O=C(NC[C@H](Nc1ccc(-c2ccccc2)nc1)C(=O)O)[C@@H]1CCCN(CCCc2ccc3c(n2)NCCC3)C1 [Compound 360] | < 100 | < 100 |
| Cc1cc(C)n(-c2cccc([C@H](CNC(=O)[C@@H]3CCCN(CCCc4ccc5c(n4)NCCC5)C3)C(=O)O)c2)n1 [Compound 257-A, 2-(3-(3,5-dimethyl-1H-pyrazol-1-yl)phenyl)-3-((R)-1-(3-(5,6,7,8-tetrahydro-1,8-naphthyridin-2-yl)propyl)piperidine-3-carboxamido)propanoic acid] | < 100 | < 100 |

Results, then the compound that gave them:

| IC50 [1] [nM] | IC50 [2] [nM] | Structure (SMILES) |
| --- | --- | --- |
| 100 to 1000 | 100 to 1000 | O=C(O)C[C@H](CO[C@@H]1CCCN(CCCc2ccc3c(n2)NCCC3)C1)c1ccccc1 [Compound 297-A, 3-phenyl-4-(((R)-1-(3-(5,6,7,8-tetrahydro-1,8-naphthyridin-2-yl)propyl)piperidin-3-yl)oxy)butanoic acid] |
| > 1000 | > 1000 | O=C(O)C[C@H](NC(=O)[C@H]1CCCN(CCCCc2ccc3c(n2)NCCC3)C1)c1ccccc1 [Compound 287, (S)-3-phenyl-3-((S)-1-(4-(5,6,7,8-tetrahydro-1,8-naphthyridin-2-yl)butyl)piperidine-3-carboxamido)propanoic acid] |
| > 1000 | > 1000 | O=C(O)[C@@H](CO[C@@H]1CCCN(Cc2ccc3c(n2)NCCC3)C1)Nc1ncnc2ccccc12 [Compound 411] |
| < 100 | 100 to 1000 | O=C(O)[C@H](CCO[C@H]1CCCN(CCCc2ccc3c(n2)NCCC3)C1)Nc1ncnc2ccccc12 [Compound 446] |
| 100 to 1000 | > 1000 | C[C@H]1CCN(CCCc2ccc3c(n2)NCCC3)C[C@H]1C(=O)N[C@@H](CC(=O)O)c1ccccc1 [Compound 378] |
| < 100 | < 100 | O=C(O)C[C@@H](CO[C@@H]1CCCN(CCCc2ccc3c(n2)NCCC3)C1)c1cccc(N2CCCC2=O)c1 [Compound 504] |
| > 1000 | > 1000 | O=C(O)[C@@H](CCO[C@@H]1CCCN(CCCc2ccc3c(n2)NCCC3)C1)c1ccc(C2CC2)cc1 [Compound 484] |
| < 100 | < 100 | O=C(O)C[C@H](CO[C@@H]1CCCN(CCCc2ccc3c(n2)NCCC3)C1)c1cccc([C@@H]2CCOC2)c1 [Compound 491] |
| < 100 | < 100 | C[C@@H]1CC[C@H](C(=O)N[C@@H](CC(=O)O)c2ccccc2)CN1CCCc1ccc2c(n1)NCCC2 [Compound 346] |
| 100 to 1000 | 100 to 1000 | CC1(C)CN(c2cccc([C@H](CO[C@@H]3CCCN(CCCc4ccc5c(n4)NCCC5)C3)CC(=O)O)c2)CCO1 [Compound 569] |
| > 1000 | > 1000 | O=C(O)C[C@H](OC[C@@H]1CCCN(CCCc2ccc3c(n2)NCCC3)C1)c1ccccc1 [Compound 294, (S)-3-phenyl-3-(((R)-1-(3-(5,6,7,8-tetrahydro-1,8-naphthyridin-2-yl)propyl)piperidin-3-yl)methoxy)propanoic acid] |
| > 1000 | > 1000 | O=C(CC[C@H](C(=O)O)c1ccccc1)N[C@@H]1CCN(CCCCc2ccc3c(n2)NCCC3)C1 [Compound 420] |
